From PMC4262413, “Importance of Tryptophan in Transforming an Amphipathic Peptide into a Pseudomonas aeruginosa-Targeted Antimicrobial Peptide” (PLoS ONE, 2014) come the findings set out here.

One data set concerns Female KM mice. In words: In vivo toxicity. Further details: species or system Chinese Kun Ming (KM) mice. The settings on record: intraperitoneal injection, 3, 6, 30 or 60 mg per kg of body weight, 10/group. Here is the method: The in vivo toxicity of the peptide was also evaluated. Female KM mice (weighing 20 to 25 g) were injected intraperitoneally with 0.1 ml saline and 3, 6, 30, and 60 mg peptide per kg of body weight. The animals (10/group) were directly inspected for adverse effects, such as weight loss, piloerection, motility and mortality for 7 days thereafter. All mice were allowed free water and a maintenance diet in a 12-hour light/dark cycle. All cages contained wood shavings and bedding. The experiment was carried out in strict accordance with the recommendations of the Guide for the Care and Use of Laboratory Animals of Northeast Agricultural University, and the study protocol was approved by Northeast Agricultural University Institutional Animal Care and Use Committee. The mice were monitored for a week and no mice died during the experiment.

For a further data set, the system named is E. coli 25922. In words: microbe, parasite or virus in culture. The format is cell-based, Escherichia coli. As to the method:
(§1) Minimal inhibitory concentration (MIC) assays were performed as described previously. Briefly, after incubation overnight in Mueller-Hinton (MH) broth at 37°C, the bacteria were grown to exponential growth phase and diluted to approximately 1×10^5 CFU/ml. The peptides were dissolved in 0.2% bovine serum albumin (BSA) containing 0.01% (v/v) acetic acid, and they were then added to each well of a 96-well plates at a final concentration ranging from 0.25 to 128 µM. Each well contained a total volume of 100 µL (50 µL of inoculums and 50 µL of peptide-containing solution). The MICs were determined as the lowest concentration of peptide that prevented visible turbidity by visual inspection after incubation at 37°C for 16–18 h. Independent experiments were carried out at least three times. Uninoculated MH broth was used as a negative control and cultures without added peptides served as the positive control. Minimal bactericidal concentration (MBC) assay was performed following MIC assay. At the end of MIC assay 10 µL aliquots of the medium were taken from peptide-containing wells with no visible bacterial growth. These are plated on MH agar, incubated for 18 h to allow colony growth. The MBC was defined as the lowest peptide concentration resulting in no bacterial growth in the media. Each assay was performed at least three times.

The test system of a further data set is S. aureus 29213. The data set can be described thus: microbe, parasite or virus in culture. The class given is cell-based, Staphylococcus aureus. As to the method: as §1
A further data set deals with S. epidermidis 12228. In words: microbe, parasite or virus in culture. The format is cell-based, Staphyfococcus epidermidis. Here is the method: as §1
A further data set relates to S. typhimurium 7731. The data set can be described thus: microbe, parasite or virus in culture. The class given is cell-based, Salmonella typhimurium. As to the method: as §1
The subject of data set [1] is P. auruginosa LCCE (ceftazidime-resistant strain). The data set can be described thus: microbe, parasite or virus in culture. Here is the method:
as §1
(§2) The antimicrobial activity of the RI16 and mutant peptides against Gram-negative and Gram-positive bacteria were determined.

In data set [2] the test system is P. auruginosa LCCI (ciprofloxacin-resistant strain). In words: microbe, parasite or virus in culture. Here is the method:
as §1, §2

For data set [3], the system named is P. auruginosa LCGE (gentamincin-resistant strain). The data set can be described thus: microbe, parasite or virus in culture. Here is the method:
as §1, §2

In another data set the test system is P. aeruginosa 27853. The data set can be described thus: microbe, parasite or virus in culture. The format is cell-based, Pseudomonas aeruginosa. As to the method:
as §1

The next data set relates to P. auruginosa 10419. The data set can be described thus: microbe, parasite or virus in culture. The format is cell-based, Pseudomonas aeruginosa. Here is the method: as §1
The test system of a further data set is P. auruginosa 21630. In words: microbe, parasite or virus in culture. The class given is cell-based, Pseudomonas aeruginosa. As to the method:
as §1

A further data set deals with P. auruginosa 21625. The data set can be described thus: microbe, parasite or virus in culture. The format is cell-based, Pseudomonas aeruginosa. As to the method: as §1
The test system of another data set is P. auruginosa LC. In words: microbe, parasite or virus in culture. The format is cell-based, Pseudomonas aeruginosa. As to the method: as §1
The subject of data set [4] is P. aeruginosa ATCC27853 biofilms. The data set can be described thus: Biofilm biomass assay and FE-SEM imaging. The format is cell-based, Pseudomonas aeruginosa. Here is the method:
A static abiotic solid surface assay was used to analyze biofilm formation as described before, with minor modification. Briefly, overnight cultures of P. aeruginosa ATCC27853 were diluted 1∶100 in fresh medium, added (500 µL) to wells of 12-well culture plates, and grown for 24 h at 37°C. Planktonic cells and loosely attached cells were removed, and wells were then refilled with 500 µL of fresh broth in the absence or presence of different concentrations of peptides. After incubation the biofilms were stained with 0.1% (w/v) crystal violet. Ethanol (95%, v/v) was added to each well, and absorbance was measured at 600 nm. The experiments were done at least three times in duplicate, and the data was expressed as mean ± standard deviations.
For microscopic observation of the biofilm, sterilized coverslips were placed at the bottom of a 12-well plate. After incubation, cells were fixed with 2.5% glutaraldehyde overnight. The samples were then dehydrated through a graded series of ethanol (50%, 70%, 90%, and 100%), followed by critical–point drying, gold sputtering, and examination using an FE-SEM (Hitachi, Japan).

Values after ≈ are worked out from the molar mass of the structure shown. Residues, ends and D or L forms follow the SMILES beside them.

For `CC[C@H](C)[C@H](NC(=O)[C@H](CCCCN)NC(=O)[C@H](CCCCN)NC(=O)[C@H](CC(C)C)NC(=O)[C@H](CCCNC(=N)N)NC(=O)[C@H](CCCCN)NC(=O)[C@H](CCCNC(=N)N)NC(=O)[C@H](Cc1c[nH]c2ccccc12)NC(=O)[C@H](CCCCN)NC(=O)[C@H](CCCCN)NC(=O)[C@H](CCCNC(=N)N)NC(=O)[C@H](CC(C)C)NC(=O)[C@H](CCCNC(=N)N)NC(=O)[C@H](CCCNC(=N)N)NC(=O)[C@H](Cc1ccccc1)NC(=O)[C@@H](N)CCCNC(=N)N)C(N)=O` [T9W] (H-RFRRLRKKWRKRLKKI-NH2), the “Signs of toxicity (weight loss, piloerection, motility)” value in the data set on Female KM mice (7 days, data not shown) is on record as “no signs of toxicity”. Besides, in the data set on Female KM mice (at least 7 days), the Survival result was “all survived”. Also, the MIC in the data set with E. coli 25922 (25922) is listed as 64 µM (≈ 145 µg/mL); with S. aureus 29213 (29213), 128 µM (≈ 290 µg/mL); with S. epidermidis 12228 (12228), 64 µM (≈ 145 µg/mL); with S. typhimurium 7731 (7731), 128 µM (≈ 290 µg/mL); in data set [1], 4 µM (≈ 9.07 µg/mL); in data set [2], 2 µM (≈ 4.54 µg/mL). In addition, the MIC in [3] was found to be 4 µM (≈ 9.07 µg/mL); against P. aeruginosa 27853 (27853), 2 µM (≈ 4.54 µg/mL); with P. auruginosa 10419, 4 µM (≈ 9.07 µg/mL); in the data set on P. auruginosa 21630 it was 4 µM (≈ 9.07 µg/mL); in the data set with P. auruginosa 21625, 4 µM (≈ 9.07 µg/mL); in the data set on P. auruginosa LC it was 1 µM (≈ 2.27 µg/mL). Also, the MBC with E. coli 25922 (25922, 18 h) was more than 128 µM; against S. aureus 29213 (29213, 18 h) it was more than 128 µM; in the data set on S. epidermidis 12228 (12228, 18 h), more than 128 µM; with S. typhimurium 7731 (7731, 18 h), more than 128 µM; in data set [1] (18 h) it was 8 µM (≈ 18.1 µg/mL); in [2] (18 h), 4 µM (≈ 9.07 µg/mL). Besides, the MBC in data set [3] (18 h) came out at 8 µM (≈ 18.1 µg/mL); in the data set with P. aeruginosa 27853 (27853, 18 h), 2 µM (≈ 4.54 µg/mL); in the data set with P. auruginosa 10419 (18 h), 4 µM (≈ 9.07 µg/mL); with P. auruginosa 21630 (18 h), 4 µM (≈ 9.07 µg/mL); against P. auruginosa 21625 (18 h), 4 µM (≈ 9.07 µg/mL); with P. auruginosa LC (18 h), 2 µM (≈ 4.54 µg/mL).

For the compound “LL37: the only host defense peptide encoded by the human cathelicidin gene, which eliminates bacteria by targeting membranes (LLGDFFRKSKEKIGKEFKRIVQRIKDFLRNLVPRTES; Antibacterial peptide LL-37; UniProt P49913 134-170, looked up)”, the “Biofilm biomass of pre-formed biofilms” value in [4] (P. aeruginosa 27853, 24 h treatment, various concentrations, crystal violet, absorbance 600 nm, relative to untreated control, Fig. 6A) is given as “reduced”. Moreover, the “Cell densities in the biofilms (FE-SEM)” value in data set [4] (P. aeruginosa 27853 biofilms, peptides at 4×MIC, Fig. 6B) is reported as “significantly reduced”.
